The values below come from US11266664B2, “Use of homosalate and octyl salicylate to treat multiple sclerosis” (Wisconsin Alumni Research Foundation, priority 2016, dated 2022).

One data set deals with MS. The settings on record: studied in 1961, reference 9; cited from earlier work.
Another data set relates to EAE mice. Nature of the data set: MOG35-55-induced EAE in mice, daily clinical score (0-5). It counts as in vivo. The following applies: for Suppression of EAE (mean clinical score) by sunscreen ingredients: topical daily day 0-30, amount equal to that in the sunscreen: homosalate 1.5 g/kg, octisalate 0.5 g/kg, 12% avobenzone, 16% oxybenzone in 25 μl DMSO; for Mean Severity / CDI / Day of onset: as E1, mean ± SD; for Mean Severity: clinical score 0-5 averaged over the entire experiment; for CDI: clinical scores summed per animal, divided by mice per group; for Effective topical dose in a mouse model: daily; for Dose dependence of EAE suppression: topical 10, 20 and 30 μl or 0.5, 1.0, 1.5 g/kg (FIG. 8A); for Incidence: topical daily day 0-30, homosalate 30 μl (1.5 g/kg), octisalate 10 μl (0.5 g/kg), sunscreen spray 200 μl, N=11-12, * P<0.05 vs Control; for Suppression of EAE at 1.5 g/kg: topical, ca 1.5 g/kg. On the procedure:
Animals and Diet. Female C57BL/6 mice (8-9 weeks old) purchased from Jackson Laboratory were fed a standard lab diet chow 5008 (Purina Mills, Richmond, Ind.) and maintained in the Department of Biochemistry's vivarium. The mice were exposed to 12 h light-dark cycles. All procedures were approved by the Research Animal Resources Committee of the College of Agricultural & Life Sciences, University of Wisconsin-Madison. The mice were randomly divided into groups for different treatment (12 mice/group).
Mice were shaved on their back to receive sunscreen or NBUVB radiation. The following Sunscreen cream or spray was used in our study (See Appendix A): 1. Coppertone spray (SPF 50, MSD Consumer Care, Inc., Memphis, Tenn.); 2. Coppertone water babies (SPF 50, MSD Consumer Care, Inc., Memphis, Tenn.); 3. Hawaiian Tropic (SPF 50, Energizer Personal Care, LLC, Shelton, Conn.); 4. Kiss my face (SPF 50, Kiss My Face, LLC, Gardiner, N.Y.); 5. Blue Lizard Australian Sunscreen (SPF 30, Crown Laboratories, Johnson, Tenn.); 6. Banana Boat Kids (SPF 50, Energizer Personal Care, LLC, Shelton, Conn.); 7. CoTZ Face (SPF40, CoTZ Skincare, West Norriton, Pa.). The sunscreen was applied manually to cover the shaved skin daily depending on the experimental schedule. Four main active ingredients (avobenzone; oxibenzone; homosalate; octyl salicylate) were purchased from Spectrum Chemical MFG. Corp. (New Brunswick, N.J.). The total dose of each ingredient administrated topically on each mouse skin was equal to the amount of the ingredient in the sunscreen.
In this experiment, mice were immunized with myelin oligodendrocyte glycoprotein peptide (MOG)35-55. MOG35-55 kit (EK-2110) was purchased from Hooke lab (Lawrence, Mass.). Each mouse was immunized with subcutaneous injection of 20 μl MOG35-55/CFA emulsion and intraperitoneally injection with 200 ng of pertussis toxin (List Biological Laboratories) diluted in sterile PBS. The second booster pertussis toxin injection was given 48 hours later. Each mouse was scored daily for clinical signs of EAE using the following scale: 0, no clinical disease; 1, loss of tail tone; 2, unsteady gait; 3, hind limb paralysis; 4, forelimb paralysis; 5, death.
Onset was calculated by averaging the first day when clinical signs appeared and continued for at least 2 days. Mean severity was determined by averaging the clinical scores during the entire experiment. The CDI (clinical disease index) was calculated by summing the clinical scores in each animal and divided by the number of mice per group. Statistical analyses were performed using the two-tailed Fisher exact probability test for incidence, the Mann-Whitney nonparametric u test for clinical scores, and the unpaired Student t test for all other measurements. A value of P<0.05 was considered statistically significant.
Female C57BL/6 mice (8-10 weeks old) purchased from Jackson Laboratory (Bar Harbor, Me.) were fed a standard lab chow 5008 (Purina Mills, Richmond, Ind.). The mice were exposed to 12 h light-dark cycles. In one experiment the animals were kept in darkness at all times. All procedures were approved by the Institutional Animal Care and Use Committee of the College of Agricultural & Life Sciences, University of Wisconsin-Madison.
Mice were immunized with MOG35-55 kit (EK-2110, purchased from Hooke lab (Lawrence, Mass.)). Each mouse was immunized with a subcutaneous injection of 20 μl MOG35-55/CFA emulsion and an intraperitoneal injection with 200 ng of pertussis toxin (List Biological Laboratories) diluted in sterile PBS (14). A second booster pertussis toxin injection was given 48 hours later. Each mouse was scored daily for clinical signs of EAE using the following scale: 0, no clinical disease; 1, loss of tail tone; 2, unsteady gait; 3, hindlimb paralysis; 4, forelimb paralysis; 5, death (15).
Sunscreen creams or spray applied topically to the shaved back skin of the mice daily are shown below (Table 2): 1. […]

Data set [1] can be described thus: Body weight of EAE mice, weighed weekly. The following applies: for Body weight of EAE mice given sunscreen ingredients: topical daily day 0-30, amount equal to that in the sunscreen; for Body weight at three doses: topical 0.5, 1.0, 1.5 g/kg, all treatments except homosalate 0.5 g/kg (FIG. 8B). The data set is classed as in vivo. As to the method: Referring to FIGS. 2A and 2B, we analyzed different sunscreen ingredients. […] Mice were treated with ingredients (avobenzone, oxybenzone or combination) of sunscreen by topical administration daily during EAE (day 0-day 30). Sunscreen spray 200 μl was also used as a positive control. Each mouse was scored daily and weighed weekly during the experiment (30 days). Data are expressed as mean value, N=10-12/group.
Mice were treated with ingredients (homosalate, octyl salicylate or combination) of sunscreen by topical administration daily during EAE (day 0-day 30). Sunscreen spray 200 μl daily was used as a positive control. Mice were scored daily and weighed weekly. Data were expressed as mean value, N=10-12/group.

The nature of data set [2]: Adverse effects of topical application. It counts as in vivo, mice.
A further data set has as its system ear edema. The following applies: ear edema test in mice, reference 7; cited from earlier work.
A further data set concerns rabbits. The following applies: unpublished; cited from earlier work.

Entries after “also recorded” stand apart in the source; their conditions may differ.

In the case of `CC(=O)Oc1ccccc1C(=O)O` [aspirin, acetylsalicylic acid], in the data set on MS, the “Relationship between aspirin and MS, control vs treated group” value is “without a significant difference between the control and treated group”.

For the compound `COc1ccc(C(=O)CC(=O)c2ccc(C(C)(C)C)cc2)cc1` [avobenzone, reference compound], the “Suppression of EAE (mean clinical score) by sunscreen ingredients” value (from here on “Suppression of EAE (mean clinical score)”) in the data set with EAE mice is “partially suppress EAE severity; also recorded: little to no significant suppression of EAE; also recorded: fail to suppress EAE; also recorded: slightly suppressed disease progression”; in the data set on EAE mice (listed as Avobenzone), “partially suppress EAE severity”. In data set [1], the “Body weight of EAE mice given sunscreen ingredients” value is reported as “no significant change in body weight”.

As to `CCCCC(CC)COC(=O)c1ccccc1O` (centres unmarked) [octyl salicylate, 2-ethylhexyl salicylate], in the data set on EAE mice, the “Mean Severity” value came out at 2.0 ± 0.8, the CDI is given as 20 ± 1, the Day of onset is 18 ± 3 and the “Effective topical dose in a mouse model” value was determined as 500 mg/kg. In the data set on EAE mice, the “Suppression of EAE (mean clinical score)” value was “dramatically suppress EAE development; also recorded: provide the protection; also recorded: almost completely prevented EAE development”, the Incidence was 75% (9/12) and the “Suppression of EAE at 1.5 g/kg” value is on record as “equally active”. In the data set on EAE mice (listed as octisalate), the “Dose dependence of EAE suppression” value is reported as “dose-dependent suppression of EAE; also recorded: dose dependent suppression of EAE” and the “Suppression of EAE (mean clinical score)” value is “complete suppression of EAE; also recorded: significantly suppress EAE”. Further, the “Suppression of EAE (mean clinical score)” value with EAE mice (listed as Octisalate) is “moderate suppression but did not reach statistical significance”. Further, the “Body weight at three doses” value in data set [1] (listed as octisalate) was “increased the body weight; also recorded: significantly different from control”. The “Body weight of EAE mice given sunscreen ingredients” value in data set [1] is listed as “without affecting body weight”. Moreover, the Adverse effect result in data set [2] is “temporary mild skin irritation”.

Consider `COc1ccc(C(=O)c2ccccc2)c(O)c1` [oxybenzone, reference compound], for which, in the data set with EAE mice, the “Suppression of EAE (mean clinical score)” value is “partially suppress EAE severity; also recorded: little to no significant suppression of EAE; also recorded: fail to suppress EAE; also recorded: slightly suppressed disease progression”. Further, the “Body weight of EAE mice given sunscreen ingredients” value in data set [1] was “no significant change in body weight”.

As to `CC1CC(OC(=O)c2ccccc2O)CC(C)(C)C1` (centres unmarked) [Homosalate, 3,3,5-trimethylcyclohexyl 2-hydrobenzoate], in the data set on EAE mice, the “Mean Severity” value is listed as 1.3 ± 0.0, the CDI is on record as 1 ± 0, the Day of onset was determined as 22 ± 0 and the “Effective topical dose in a mouse model” value worked out at 1500 mg/kg. Moreover, in the data set on EAE mice, the “Dose dependence of EAE suppression” value is given as “dose-dependent suppression of EAE; also recorded: dose dependent suppression of EAE”, the “Suppression of EAE (mean clinical score)” value is “significantly suppress EAE”, the Incidence is listed as 8% (1/12) * and the “Suppression of EAE at 1.5 g/kg” value is reported as “equally active; also recorded: completely blocked EAE”. For the same compound, the “Effectiveness when applied less frequently than each day” value with EAE mice (homosalate 1.5 g/kg topically (FIGS. 8C and 8D)) is “effectiveness diminished”. Further, the “Mean EAE score, applied every day and every 2-day” value in the data set with EAE mice (homosalate 30 μl or 1.5 g/kg topically (FIGS. 8C and 8D), p<0.05) is listed as “significantly lower than control”. The “Suppression of EAE (mean clinical score)” value in the data set on EAE mice (listed as homosalate) is “dramatically suppress EAE development; also recorded: provide the protection; also recorded: dramatically suppressed EAE severity; also recorded: complete suppression of EAE; also recorded: almost completely prevented EAE development”. In the data set on ear edema, the Anti-inflammatory effect result is on record as “demonstrated”. Further, the “Acute dermal toxicity LD50” value in the data set with rabbits is greater than 5000 mg/kg. Besides, in data set [1], the “Body weight at three doses” value was “increased the body weight; also recorded: significantly different from control” and the “Body weight of EAE mice given sunscreen ingredients” value is “without affecting body weight”. Also, the Adverse effect result in data set [2] is recorded as “temporary mild skin irritation”.
